Test system: human neutrophils
Experiment: TNF-triggered H2O2 release (respiratory burst) by adherent human neutrophils
Assay type: cell-based
Protocol: Contaminating erythrocytes were lysed by hypotonic shock for 45 seconds with 0.2% saline.
Briefly, 15,000 compounds were screened to identify specific inhibitors of TNF-triggered H2O2 release in human neutrophils. H2O2 release was measured as above except a few modifications to adapt to high throughput screening. […] Percent inhibition by each compound was calculated using the formula: […]
Briefly, 96-well flat-bottomed plates (Primaria, Falcon) were coated with 50 μl/well of FBS in 5% CO2 at 37° C. for at least 1 h and washed three times with 0.9% saline. Neutrophils (1.5×10^4) were added to triplicate wells containing 100 μl of reaction mixture (2.4 nm scopoletin, 0.5 μg horseradish peroxidase (HRP), and 1 mM NaN3) and stimulated with either buffer control, TNF (PreproTech, London, UK) or phorbol myristate acetate (PMA), each at 100 ng/ml. […] The supernatant from the H2O2 release assay with 1.5×10^4 neutrophils was used to measure degranulation using lactoferrin (LF) or myeloperoxidase (MPO) ELISA kit (Oxis International, Inc., Portland, Oreg.). Spontaneous cell death from the same supernatant was measured using Cytotoxicity Detection Kit (Roche Molecular Biochemicals, Nutley, N.J.). The total cell content of LF, MPO, and lactate dehydrogenase (LDH) was determined after lysing cells with 1% Triton X100. LDH is a cytosolic enzyme whose release indicates cell lysis, such that high release of LF or MPO in the face of low release of LDH is taken as a measure of degranulation.

IC50 (Homo sapiens, Neutrophil, 1.5 h, TNF 100 ng/ml, H2O2 release at 90 min, read-out: IC50, TNF triggered H2O2 release): 22 nM
SMILES: CC1=NN(c2ccccc2)C(=O)/C1=C\Nc1cccc2ccc(C)nc12 [Comp II′]
Concentration that consistently yielded over 95% inhibition on TNF triggered RB (empirically decided for each compound): 1 µM
